In PubChem BioAssay (NCI):
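How tested: cells in 96-well plates exposed to compound for 48 hours at five concentrations. TGI is the concentration that stops growth completely.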

Legend:
Experiment in all cases: NCI-60 cell line screen, 48 h
A498 renal = tested on: A498 renal
SF-539 CNS = tested on: SF-539 CNS
HOP-92 NSCLC = tested on: HOP-92 NSCLC
OVCAR-4 ovarian = tested on: OVCAR-4 ovarian
SF-268 CNS = tested on: SF-268 CNS
U251 CNS = tested on: U251 CNS
OVCAR-3 ovarian = tested on: OVCAR-3 ovarian
MOLT-4 leukemia = tested on: MOLT-4 leukemia
SN12C renal = tested on: SN12C renal
BT-549 breast = tested on: BT-549 breast
HL-60(TB) leukemia = tested on: HL-60(TB) leukemia
TK-10 renal = tested on: TK-10 renal
OVCAR-5 ovarian = tested on: OVCAR-5 ovarian
MDA-MB-231 breast = tested on: MDA-MB-231 breast
UACC-62 melanoma = tested on: UACC-62 melanoma
MCF7 breast = tested on: MCF7 breast
SF-295 CNS = tested on: SF-295 CNS
NCI-H522 lung = tested on: NCI-H522 lung
UACC-257 melanoma = tested on: UACC-257 melanoma
HOP-62 NSCLC = tested on: HOP-62 NSCLC
NCI-H23 lung = tested on: NCI-H23 lung
EKVX NSCLC = tested on: EKVX NSCLC
IGROV1 ovarian = tested on: IGROV1 ovarian
KM12 colon = tested on: KM12 colon
UO-31 renal = tested on: UO-31 renal
T-47D breast = tested on: T-47D breast
SR leukemia = tested on: SR leukemia
CCRF-CEM leukemia = tested on: CCRF-CEM leukemia
NCI-H460 lung = tested on: NCI-H460 lung
SNB-75 CNS = tested on: SNB-75 CNS
NCI/ADR-RES ovarian = tested on: NCI/ADR-RES ovarian
SW-620 colon = tested on: SW-620 colon
SNB-19 CNS = tested on: SNB-19 CNS
A549 NSCLC = tested on: A549 NSCLC
SK-MEL-28 melanoma = tested on: SK-MEL-28 melanoma
SK-MEL-2 melanoma = tested on: SK-MEL-2 melanoma
CAKI-1 renal = tested on: CAKI-1 renal
NCI-H226 lung = tested on: NCI-H226 lung
HS 578T breast = tested on: HS 578T breast
ACHN renal = tested on: ACHN renal
HT29 colon = tested on: HT29 colon
K-562 leukemia = tested on: K-562 leukemia
SK-OV-3 ovarian = tested on: SK-OV-3 ovarian
COLO 205 colon = tested on: COLO 205 colon
DU-145 prostate = tested on: DU-145 prostate
HCT-116 colon = tested on: HCT-116 colon
SK-MEL-5 melanoma = tested on: SK-MEL-5 melanoma
M14 melanoma = tested on: M14 melanoma
PC-3 prostate = tested on: PC-3 prostate
OVCAR-8 ovarian = tested on: OVCAR-8 ovarian
786-0 renal = tested on: 786-0 renal
RPMI-8226 leukemia = tested on: RPMI-8226 leukemia
HCT-15 colon = tested on: HCT-15 colon
RXF 393 renal = tested on: RXF 393 renal
HCC-2998 colon = tested on: HCC-2998 colon
MDA-MB-435 = tested on: MDA-MB-435
LOX IMVI melanoma = tested on: LOX IMVI melanoma

CCCCCCCCCCCCc1ccsc1-c1ccc(-c2ccc(-c3sc(-c4cc(CCCCCCCCCCCC)c(-c5ccc(-c6ccc(-c7sccc7CCCCCCCCCCCC)s6)s5)s4)cc3CCCCCCCCCCCC)s2)s1
TGI (A498 renal): > 100 µM | TGI (SF-539 CNS): > 100 µM | TGI (HOP-92 NSCLC): > 100 µM | TGI (OVCAR-4 ovarian): > 100 µM | TGI (SF-268 CNS): > 100 µM | TGI (U251 CNS): > 100 µM | TGI (OVCAR-3 ovarian): > 100 µM | TGI (MOLT-4 leukemia): > 100 µM | TGI (SN12C renal): > 100 µM | TGI (BT-549 breast): > 100 µM | TGI (HL-60(TB) leukemia): > 100 µM | TGI (TK-10 renal): > 100 µM | TGI (OVCAR-5 ovarian): > 100 µM | TGI (MDA-MB-231 breast): > 100 µM | TGI (UACC-62 melanoma): > 100 µM | TGI (MCF7 breast): > 100 µM | TGI (SF-295 CNS): > 100 µM | TGI (NCI-H522 lung): > 100 µM | TGI (UACC-257 melanoma): > 100 µM | TGI (HOP-62 NSCLC): > 100 µM | TGI (NCI-H23 lung): > 100 µM | TGI (EKVX NSCLC): > 100 µM | TGI (IGROV1 ovarian): > 100 µM | TGI (KM12 colon): > 100 µM | TGI (UO-31 renal): > 100 µM | TGI (T-47D breast): > 100 µM | TGI (SR leukemia): 75.2 µM | TGI (CCRF-CEM leukemia): > 100 µM | TGI (NCI-H460 lung): > 100 µM | TGI (SNB-75 CNS): > 100 µM | TGI (NCI/ADR-RES ovarian): > 100 µM | TGI (SW-620 colon): > 100 µM | TGI (SNB-19 CNS): > 100 µM | TGI (A549 NSCLC): > 100 µM | TGI (SK-MEL-28 melanoma): > 100 µM | TGI (SK-MEL-2 melanoma): > 100 µM | TGI (CAKI-1 renal): > 100 µM | TGI (NCI-H226 lung): > 100 µM | TGI (HS 578T breast): > 100 µM | TGI (ACHN renal): > 100 µM | TGI (HT29 colon): > 100 µM | TGI (K-562 leukemia): > 100 µM | TGI (SK-OV-3 ovarian): > 100 µM | TGI (COLO 205 colon): > 100 µM | TGI (DU-145 prostate): > 100 µM | TGI (HCT-116 colon): > 100 µM | TGI (SK-MEL-5 melanoma): > 100 µM | TGI (M14 melanoma): > 100 µM | TGI (PC-3 prostate): > 100 µM | TGI (OVCAR-8 ovarian): > 100 µM | TGI (786-0 renal): > 100 µM | TGI (RPMI-8226 leukemia): > 100 µM | TGI (HCT-15 colon): > 100 µM | TGI (RXF 393 renal): > 100 µM | TGI (HCC-2998 colon): > 100 µM | TGI (MDA-MB-435): > 100 µM

O=C(Nc1ccc(Cl)cc1)c1cc2c(cc1Cl)SC(NNCCO)=NS2(=O)=O
TGI (A498 renal): > 100 µM | TGI (SF-539 CNS): > 100 µM | TGI (HOP-92 NSCLC): > 100 µM | TGI (OVCAR-4 ovarian): > 100 µM | TGI (SF-268 CNS): > 100 µM | TGI (U251 CNS): > 100 µM | TGI (MOLT-4 leukemia): > 100 µM | TGI (BT-549 breast): > 100 µM | TGI (HL-60(TB) leukemia): > 100 µM | TGI (TK-10 renal): > 100 µM | TGI (MDA-MB-231 breast): > 100 µM | TGI (UACC-62 melanoma): > 100 µM | TGI (MCF7 breast): > 100 µM | TGI (SF-295 CNS): > 100 µM | TGI (UACC-257 melanoma): > 100 µM | TGI (HOP-62 NSCLC): > 100 µM | TGI (NCI-H23 lung): > 100 µM | TGI (EKVX NSCLC): > 100 µM | TGI (IGROV1 ovarian): > 100 µM | TGI (KM12 colon): > 100 µM | TGI (UO-31 renal): > 100 µM | TGI (T-47D breast): > 100 µM | TGI (SR leukemia): > 100 µM | TGI (CCRF-CEM leukemia): > 100 µM | TGI (NCI-H460 lung): > 100 µM | TGI (SNB-75 CNS): > 100 µM | TGI (NCI/ADR-RES ovarian): > 100 µM | TGI (SW-620 colon): > 100 µM | TGI (LOX IMVI melanoma): > 100 µM | TGI (SNB-19 CNS): > 100 µM | TGI (SK-MEL-28 melanoma): > 100 µM | TGI (SK-MEL-2 melanoma): > 100 µM | TGI (CAKI-1 renal): > 100 µM | TGI (NCI-H226 lung): > 100 µM | TGI (HS 578T breast): > 100 µM | TGI (ACHN renal): > 100 µM | TGI (HT29 colon): > 100 µM | TGI (K-562 leukemia): > 100 µM | TGI (SK-OV-3 ovarian): > 100 µM | TGI (COLO 205 colon): > 100 µM | TGI (DU-145 prostate): > 100 µM | TGI (HCT-116 colon): > 100 µM | TGI (SK-MEL-5 melanoma): > 100 µM | TGI (M14 melanoma): > 100 µM | TGI (PC-3 prostate): > 100 µM | TGI (OVCAR-8 ovarian): > 100 µM | TGI (786-0 renal): > 100 µM | TGI (RPMI-8226 leukemia): > 100 µM | TGI (HCT-15 colon): > 100 µM | TGI (RXF 393 renal): > 100 µM | TGI (HCC-2998 colon): > 100 µM | TGI (MDA-MB-435): > 100 µM
